Reference: a melting point compilation (Tetko et al.; mined from patent text by program, amines drawn as free bases though some values may be those of a salt)

| Compound | melting point [°C] |
| --- | --- |
| c1ccc2nc(COc3ccc(CCc4ccc(-c5nnn[nH]5)cc4)cc3)ccc2c1 | 203 to 206 |
| CCCCn1c2ccc(C#N)cc2c2cc(C#N)ccc21 | 215 to 217 |
| O=C1C(Cl)=C(c2ccccc2)C1(F)F | 77.5 to 78 |
| CCCCCCCCCCc1ccc(CNc2ccc(C(=O)O)cc2)cc1 | 135 to 136 |
| CC(C)N1C(=S)NC(c2ccccc2)c2cc3c(cc21)OCO3 (stereo not drawn) | 214 to 218 |
| Cc1c(C)c2c(c(C)c1NC(=O)CC(C)(C)C)C(c1ccccn1)C(C)(C)O2 (stereo not drawn) | 210 to 212 |
| O=C(O)c1c2c(nc3ccc(F)cc13)-c1ccc(-c3ccc(F)cc3F)cc1CCC2 | > 300 |
| CC(C)=Cc1ccc(-c2ccc(CCCI)cc2)cc1 | 58 to 61 |
| CCN1CCC(=O)N(c2ccccc2F)C1=S | 101 to 104 |
| CCCCCCCCCCCCCCCCCC(=O)N1C(CCCCCCCCCCCCCCCCC)NC(=O)CC1C(=O)O (stereo not drawn) | 107 to 111 |
| CCOC(=O)c1cc2ccnc(N(Cc3ccccc3)Cc3ccccc3)c2[nH]1 | 120 to 123 |
| O=C(O)c1cc(=O)c2cccc(COc3ccc(OCc4ccc5ccccc5n4)cc3)c2o1 | 221 to 224 |
| CCOC(=O)c1ccc(Cn2cnc3ncccc32)cc1 | 142 to 143 |
| O=C(CCl)Nc1ccncc1O | 155 to 158 |
| Cc1ccc2c(c1)C1(OCCO1)C1(CCC(=O)CC1)C2 | 116 to 118 |
| O=C(O)c1cnc2ccc(Cc3ccccc3)cc2c1 | 203 to 205 |
| COc1cc2c(c(N(C(C)=O)C(C)=O)c1)CC(C)O2 (stereo not drawn) | 56 to 57 |
| CCOC(=O)COc1ccc(SCCc2cccc3sc(-c4ccc(C(F)(F)F)cc4)nc23)cc1C | 97 to 100 |
| O=[N+]([O-])c1cc(C(F)(F)F)ccc1C1(O)CC=NO1 (stereo not drawn) | 122 to 123 |

| Compound | melting point [°C] |
| --- | --- |
| CCn1c(=O)c2c(nc(/C=C/c3ccc(OC)c(C)c3C)n2C)n(CC)c1=O | 208 |
| COc1ccccc1N1CCN(CCCCCn2c(=O)[nH]c3cscc3c2=O)CC1 | 148 to 153 |
| CCC[C@H](C)C(=O)O[C@H]1CCC=C2C=C[C@H](C)[C@H](CC[C@@H]3C[C@@H](O)CC(=O)O3)[C@H]21 | 110 to 112 |
| CCCc1nc2cccc(C(=O)OC)c2n1Cc1ccc(-c2ccccc2C(=N)NOC(C)=O)cc1 | 177 to 178 |
| CC(=O)c1ccc2c(c1)CN(C(=O)C(F)(F)F)CC2 | 80 |
| COCOc1cc(C=O)ccc1OCc1nc(-c2ccco2)oc1C | 102 to 103 |
| Cc1ccc(N(c2ccc(-c3ccc(-c4ccc(N(c5ccc(C)cc5)c5ccc6c(c5)CCC6)cc4)cc3)cc2)c2ccc3c(c2)CCC3)cc1 | 207 to 208 |
| COc1cc(N)c(Cl)cc1C(=O)NC1C=NN(C)C1 (stereo not drawn) | 173 to 175 |
| O=C(c1ccc(S(=O)(=O)Cl)cc1)c1cccs1 | 118 |
| COC(=O)c1cc(Cl)cnc1OC | 79 to 81 |
| CC(=O)N(C)c1cccc(-c2ccnc3c(C(=O)c4ccco4)cnn23)c1 | 210 to 212 |
| CCCc1nn(C)c2c(=O)n(CCOc3ccc(NC(C)C(=O)OCC)cc3)c(CC)nc12 (stereo not drawn) | 100 to 104 |
| Cc1cccnc1NC(=O)CN1C[C@@H](C)N(c2ncnc3sccc23)[C@@H](C)C1 | 157 to 159 |
| CN1C(=O)C2(COc3cc4c(cc32)OCCO4)c2c(-c3cc(O)[nH]n3)cccc21 (stereo not drawn) | > 250 |
| COC1CCC2C3CCC4CC(Cl)CCC4(C)C3CCC12C (stereo not drawn) | 151 to 154 |
| CCCC(CCC)Nc1nc(C)nc(Oc2c(Br)cc(C(C)(C)O)cc2OC)c1[N+](=O)[O-] | 119 to 120 |
| CC1=C(C(=O)CS(=O)(=O)NC(C)C)[C@@H](c2cccc([N+](=O)[O-])c2)C(C(=O)O[C@@H](C)c2ccccc2)=C(C)N1 | 128 to 131 |
| Cc1c(NC(=O)CC(C)(C)C)c(C)c2c(c1C(C)O)OCC2c1ccc(C(C)C)cc1 (stereo not drawn) | 156 to 157 |
| COC(=O)[C@H](c1ccccc1Cl)N1CCc2sc(OC(C)=O)cc2C1 | 73 to 75 |
